The record followed here is US8853171B2, “1′-substituted carba-nucleoside analogs for antiviral treatment” (Gilead Sciences, Inc., priority 2008, dated 2014).

The first experiment has as its target T1, HCV Δ21 NS5b polymerase (Hepatitis C virus genotype 1b, UniProt Q9WMX2).
T1 construct: 75 nM HCV Δ21 NS5b polymerase
As to the kind of experiment: HCV IC50 determination: NS5b polymerase assay.
Conditions: not given
Type of experiment: biochemical. The protocol:
Assay Protocol: NS5b polymerase assay (40 μL) was assembled by adding 28 μL polymerase mixture (final concentration: 50 mM Tris-HCl at pH 7.5, 10 mM KCL, 5 mM MgCl2, 1 mM DTT, 10 mM EDTA, 4 ng/μL of RNA template, and 75 nM HCV Δ21 NS5b polymerase) to assay plates followed by 4 μL of compound dilution. The polymerase and compound were pre-incubated at 35° C. for 10 minute before the addition of 8 μL of nucleotide substrate mixture (33P-α-labeled competing nucleotide at KM and 0.5 mM of the remaining three nucleotides). The assay plates were covered and incubated at 35° C. for 90 mM. Reactions were then filtered through 96-well DEAE-81 filter plates via vacuum. The filter plates were then washed under vacuum with multiple volumes of 0.125 M NaHPO4, water, and ethanol to remove unincorporated label. Plates were then counted on TopCount to assess the level of product synthesis over background controls. The IC50 value is determined using Prism fitting program.
`C[C@@]1(O)[C@H](O)[C@@H](COP(=O)(O)O)O[C@@]1(C#N)c1ccc2c(N)ncnn12` [Compound 17] gave an IC50 of less than 1 µM.

The test system of the next experiment is HCV replicon cells. As to the kind of experiment: HCV EC50 determination: replicon luciferase assay. Type of experiment: cell-based. Conditions: Hepatitis C virus, 72 h, 3 days incubation, luciferase activity. On the procedure:
Replicon cells were seeded in 96-well plates at a density of 8×10^3 cells per well in 100 μL of culture medium, excluding Geneticin. Compound was serially diluted in 100% DMSO and then added to the cells at a 1:200 dilution, achieving a final concentration of 0.5% DMSO and a total volume of 200 μL. Plates were incubated at 37° C. for 3 days, after which culture medium was removed and cells were lysed in lysis buffer provided by Promega's luciferase assay system. Following the manufacturer's instruction, 100 μL of luciferase substrate was added to the lysed cells and luciferase activity was measured in a TopCount luminometer.
The compound `C[C@@]1(O)[C@H](O)[C@@H](CO)OC1(O)c1ccc2c(N)ncnn12` (some centres unmarked) [Compound 2] had an EC50 of 10 to 100 µM.
With `CO[C@@]1(c2ccc3c(N)ncnn23)O[C@H](CO)[C@@H](O)[C@@]1(C)O` [Compound 3], the EC50 was 10 to 100 µM.
Regarding `C[C@@]1(c2ccc3c(N)ncnn23)O[C@H](CO)[C@@H](O)[C@@]1(C)O` [Compound 4], the EC50 lay within 10 to 100 µM.
Same read-out and setting: the result for `C[C@@]1(O)[C@H](O)[C@@H](CO)O[C@@]1(C#N)c1ccc2c(N)ncnn12` [Compound 5] reads 10 to 100 µM; that for `CC(C)(C)C(=O)SCCOP(=O)(OCCSC(=O)C(C)(C)C)OC[C@H]1O[C@@](C#N)(c2ccc3c(N)ncnn23)[C@](C)(O)[C@@H]1O` [Compound 6], less than 1 µM; that for `CO[C@@]1(c2ccc3c(N)ncnn23)O[C@H](CO)[C@@H](O)[C@H]1O` [Compound 12], 1 to 10 µM.
`N#C[C@@]1(c2ccc3c(N)ncnn23)O[C@H](CO)[C@@H](O)[C@H]1O` [Compound 13] displayed an EC50 of 1 to 10 µM.

Usually IC50 stands for the point on the concentration scale where inhibition reaches its midpoint. The low end stands for inhibition by little substance, the high end for a need for much substance. As usually defined, the EC50 is the midpoint of the concentration-response curve.
